Measured values reported in article PMC5007466, “VCP recruitment to mitochondria causes mitophagy impairment and neurodegeneration in models of Huntington's disease” (Nature Communications, 2016).

Assays:
[1] = system: interaction between VCP and UBXD1; test: Co-immunoprecipitation VCP/UBXD1; type: cell-based; settings: HV-3 treatment; total cell lysates, IP/WB
Experimental: (b) Stick drawings of VCP and Htt main domains. […] Immunoprecipitates were analysed by WB with the indicated antibodies. […] VCP mitochondrial levels were determined by WB. Loading control: VDAC. Data are mean±s.e.m. (g–i) ANOVA with Holm-Sidak post hoc test.

[2] = system: HD mouse striatal cells; test: Caspase-3 activity (apoptosis); type: cell-based; settings: 24 h serum starvation, HV-3
Experimental: mouse striatal cells were treated with thapsigargin (1μM) or tunicamycin (10μ g/ml) for 16 hours i n the presence or absence of HV -3 (3 µM). GRP78 total protein levels were determined by western blot analysis. Representative blots of three independent experiments are shown. Actin was used here as a loading control. (b) Tw e n t y -four hours of serum starvation was performed in HD mouse striatal cells.
Caspase-3 activity analysis was performed in the indicated groups. Data are mean ± SEM of three independent experiments. (c) Flag-VCP and GFP-LC3B were co-transfected into HdhQ7 striatal cells.
Total lysates were isolated after 36 hours of transfection. The GFP -LC3B levels were examined by western blot analysis. Actin was used as a loading control. Histogram: quantitation of GFP-LC3B total protein level. Data are mean ± SEM of three independent experiments.
(1 picture or pasted object on this page, not shown here)

[3] = system: HD patient-iPS cell derived neurons; test: Lysosomal activity (Lyso-ID Red); type: cell-based, human; settings: 1 μM per day for 5 days
Experimental: iPS cells from a normal subject and a HD patient (carrying 41 CAG repeats) were differentiated into neurons using the protocol from our previous studies. Briefly, iPS cells were plated onto 6-well plates precoated with 2.5% Matrigel and allowed to reach 90% confluence in feeder-free medium. For the first 10 days, cells were treated with SB431542 (10 μM; Tocris Bioscience) and Noggin (100 ng/ml) in Neural Media (NM) containing Neurobasal and DMEM (1:1), B27 supplement minus vitamin A (50 × , Invitrogen), N2 supplement (100 × , Invitrogen), GlutaMax (Invitrogen, 100 × ), FGF2 ([…]) and EGF ([…]), 100 units per ml penicillin and 100 μg ml^−1 streptomycin). […]
To determine mitochondrial mass in cultures, cells were stained with antibodies against Tom20 or stained with Mitotracker green. The fluorescent density of Tom20 (1:500) or mitotracker green was quantitated using NIH Image J software. […] The images were visualized by microscope and quantitation of the density of red fluorescence was carried out using NIH ImageJ software. For immunocytochemistry study, at least 100 cells per group were counted and quantitated by an observer blind to experimental conditions.

[4] = system: R6/2 mice; test: Spontaneous locomotion, R6/2; type: in vivo, mouse; settings: R6/2, 13 weeks of age, 3 mg kg^−1 per day s.c. pump from 5 weeks, n=15
Description: Male R6/2 mice and their wt littermates (4 weeks old) were purchased from Jackson Laboratories (Bar Harbor, ME; B6CBA-TgN (HD exon 1)62; JAX stock number: 006494). These mice (C57BL/6 and CBA genetic background) are transgenic for the 5′ end of the human HD gene carrying 100–150 glutamine (CAG) repeats.
Male hemizygous R6/2 mice (Tg) and their age-matched wt littermates (5-week-old) were implanted with a 28-day osmotic pump (Alzet, Cupertino CA) containing TAT control peptide or HV-3 peptide, which delivered peptides to the mice at a rate of 3 mg kg^−1 per day. The first pump was implanted subcutaneously in the back of 5-week-old mice between the shoulders and replaced once, after 4 weeks.
Gross locomotor activity was assessed in R6/2 mice and age-matched wt littermates at the ages of 13 weeks and in YAC128 mice and age-matched wt littermates at the ages of 2, 3, 6, 9, and 12 months. In an activity chamber (Omnitech Electronics, Inc), mice were placed in the center of the chamber and allowed to explore while being tracked by an automated beam system (Vertax, Omnitech Electronics Inc). Distance moved, horizontal, vertical, and rearing activities were recorded. Because R6/2 mice were sensitive to changes in environment and handling, we only conducted one-hour locomotor activity analysis for R6/2 mice and wt littermates. […]

## CSCC[C@H](NC(=O)[C@@H](NC(=O)[C@H](CC(C)C)NC(=O)[C@@H](NC(=O)[C@H](Cc1c[nH]cn1)NC(=O)CCCCCNC(=O)[C@H](CCCNC(=N)N)NC(=O)[C@H](CCCNC(=N)N)NC(=O)[C@H](CCCNC(=N)N)NC(=O)[C@H](CCC(N)=O)NC(=O)[C@H](CCCNC(=N)N)NC(=O)[C@H](CCCNC(=N)N)NC(=O)[C@H](CCCCN)NC(=O)[C@H](CCCCN)NC(=O)[C@H](CCCNC(=N)N)NC(=O)CNC(=O)[C@@H](N)Cc1ccc(O)cc1)C(C)C)C(C)C)C(=O)N[C@@H](CS)C(=O)N[C@@H](C)C(=O)N[C@H](C(N)=O)[C@@H](C)O [HV-3]
[1]
  interaction between VCP and UBXD1: nor did it influence the interaction between VCP and its known binding protein UBXD1
[2]
  apoptosis (caspase-3 activity): did not affect apoptosis
[3]
  lysosome hyperactivity: corrected these aberrant events
[4]
  spontaneous locomotion (total distance, horizontal and vertical activities): markedly corrected these motor deficits
